How the values were obtained:
5α-reductase = target: T1, 5α-reductase (Homo sapiens, UniProt P31213); assay: 5α-reductase activity inhibition, conversion of [14C]testosterone to DHT in HEK293-5α R2 cells; format: cell-based; conditions: 2 hours
T1 construct: 3×FLAG; expressed in transfected cells; host or cells: HEK293
T1 sequence (P31213 1-254): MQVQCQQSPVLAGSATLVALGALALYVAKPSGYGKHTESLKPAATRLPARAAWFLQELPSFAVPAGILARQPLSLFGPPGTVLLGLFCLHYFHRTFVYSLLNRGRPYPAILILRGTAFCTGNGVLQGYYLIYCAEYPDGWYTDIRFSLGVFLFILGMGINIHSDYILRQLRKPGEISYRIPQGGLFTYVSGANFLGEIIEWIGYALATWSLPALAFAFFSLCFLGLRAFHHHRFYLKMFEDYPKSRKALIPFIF
Procedure: In order to evaluate the inhibitory effect on the activity of 5α-reductase, the conversion rate from [^14C]testosterone to [^14C]dihydrotestosterone (DHT) in HEK293-5α R2 cells is measured. P3×FLAG-CMV-5α R2 is transduced into HEK293 cells, which are cultured in a 24-well plate at a rate of 2.5×10^5 cells per well (Park et al., 2003, JDS. Vol. 31, pp. 191-98). The next day, the used culture medium is replaced with a new culture medium containing an enzyme substrate and an inhibitor. The substrate of the culture medium is 0.05 μCi [^14C]testosterone (Amersham Pharmacia Biotech, UK).
To evaluate the degree of 5α-reductase activity inhibition, the cells are treated with ginsenoside F2 and then cultured in a 5% CO2 incubator at 37° C. for 2 hours. In this regard, the negative control is the group not treated with ginsenoside F2, while the positive control is the group treated with finasteride. Subsequently, the culture medium is collected to extract steroids with 800 μl of ethylacetate, and the supernatant organic solvent phase is isolated and dried. The residue is dissolved in 50 μl of ethylacetate and developed on silica plastic sheet kieselgel 60 F254 using an ethylacetate-hexane (1:1) solvent.
The plastic sheet is dried out in the air and measured in regards to the abundance of isotope using a bath system. The dry plastic sheet together with an X-ray film is put in a bath cassette. After one week, the abundance of isotope of testosterone and dihydrotestosterone remaining on the film is measured to calculate the conversion rate and the inhibition rate according to the following mathematical formulas 5 and 6, respectively.

Straphylococcus aureus = assay: Antibacterial effect, MIC; format: cell-based, Staphylococcus aureus; conditions: 48 hours, 32°
Procedure: The antibacterial testing is carried out in order to evaluate the antibacterial effect of ginsenoside F2. The detailed testing method is as follows. Staphylococcus aureus, Escherichia coli, and pseudomonas aeruginosa strains are cultured with a tryptic soy broth, and candida albicans and aspergillus niger strains are cultured with sabouraud dextrose broth. The test bacterial liquid is the 1/100 (1/10 for candida albicans strain) diluted solution of the culture medium diluted with each medium. For aspergillus niger, the test bacterial liquid is the spore suspension prepared to 2×10^8 cfu/ml. 0.15 ml of the test bacterial liquid is added to 15 ml of each culture medium to prepare a well-blended diluted solution. 16 μl of the sample is put into each well on the first row of a 96-well plate, and 184 μl of the diluted solution is added to each well on the first row. Then, 100 μl of the diluted solution is put into each of the other wells. The mixed solution of the first row is sufficiently stirred, and 100 μl of the mixed solution is added to each well on the second row of the 96-well plate and stirred sufficiently. […] 48 hours later, the cell proliferation is determined by the turbidity index and microscopic observation to determine the minimum inhibitory concentration (MIC).

[1] = test system: procollagen type (I) in fibroblasts; assay: Collagen biosynthesis in fibroblasts (procollagen type (I) ELISA); format: cell-based; conditions: 10 ng/ml, 24 hours; non-treated group = 100%
Procedure: The ginsenoside F2 of the present invention is compared with TGF-β in regards to the effect of promoting biosynthesis of collagen. Firstly, fibroblasts are seeded in 24 wells at a rate of 10^5 per well and cultured until the growth reaches 90%. The fibroblasts are cultured in a non-serum culture medium for 24 hours, treated with each 10 ng/ml of ginsenoside F2 or TGF-β dissolved in the non-serum culture medium, and then cultured in a CO2 incubator for 24 hours. The supernatant liquid is collected to determine an increase or decrease of procollagen using a procollagen type (I) ELISA kit. The collagen synthesis ability is denoted with respect to 100% for the non-treated group.

interleukin-8 (IL-8) = assay: IL-8 generation inhibition in normal human skin keratinocytes (ELISA); format: cell-based; conditions: stimulation with PGSA / LPS, 24 hours
Procedure: One day before the testing, normal human skin keratinocytes (NHEK) purchased from Lonza are injected into a 96-well plate at a rate of 5×10^4 cells/well and cultured in an incubator under conditions of 5% CO2 and 37° C. for 24 hours. After 24 hours, the culture plate is washed with PBS twice, and the used culture medium is replaced with a serum-free keratinocyte basement medium. Ginsenoside F2 is injected into each well according to the concentration of Table 24 and allowed to react for 30 minutes. Then, the keratinocytes are treated separately with 10 μg/ml of PGSA, 50 μg/ml of PGSA, and a mixture of PGSA (50 μg/ml) and LPS (1 μg/ml). In this regard, PGSA (peptidoglycan from S. aureus) is stapylococcus-derived peptidoglycan that is a principal component of the cell membrane of gram-positive (+) bacteria, and the components of the cell membrane of bacteria are known to cause inflammation. Particularly, it is reported that about 90% of patients with atopic dermatitis are susceptible to secondary infection due to staphylococcus. LPS (lipopolysaccharide) is a principal component of the cell membrane of gram-negative (−) bacteria and reportedly a main cause of inflammation. After the keratinocytes are cultured in an incubator under conditions of 5% CO2 and 37° C. for 24 hours, the culture medium is collected and subjected to ELISA for interleukin-8 (IL-8). The ELISA is carried out according to the testing method as instructed by the manufacturer (BD Science).

Structure (SMILES): CC(C)=CCC[C@](C)(O[C@@H]1O[C@H](CO)[C@@H](O)[C@H](O)[C@H]1O)[C@H]1CC[C@]2(C)[C@@H]1[C@H](O)C[C@@H]1[C@@]3(C)CC[C@H](O[C@@H]4O[C@H](CO)[C@@H](O)[C@H](O)[C@H]4O)C(C)(C)[C@@H]3CC[C@]12C [Ginsenoside F2, ginsenoside F2]
- Inhibition rate (%) (5α-reductase; 5α-reductase activity): 59.7%
- Conversion rate (%) (5α-reductase; testosterone to dihydrotestosterone): 15.4%
- MIC (%) Straphylococcus aureus (Straphylococcus aureus): 0.07%
- Collagen synthesis ability (%) [1]: 191.6%
- IL-8 secretion (interleukin-8 (IL-8); 5 ppm): 1209.66 pg/mL
- IL-8 secretion (interleukin-8 (IL-8); 25 ppm): 1118.80 pg/mL
- IL-8 secretion (interleukin-8 (IL-8); 50 ppm): 1110.29 pg/mL

Structure (SMILES): CC(C)=CCC[C@](C)(O[C@@H]1O[C@H](CO[C@@H]2O[C@H](CO)[C@@H](O)[C@H](O)[C@H]2O)[C@@H](O)[C@H](O)[C@H]1O)[C@H]1CC[C@]2(C)[C@@H]1[C@H](O)C[C@@H]1[C@@]3(C)CC[C@H](O[C@@H]4O[C@H](CO)[C@@H](O)[C@H](O)[C@H]4O[C@@H]4O[C@H](CO)[C@@H](O)[C@H](O)[C@H]4O)C(C)(C)[C@@H]3CC[C@]12C [Ginsenoside Rb1]
- Collagen synthesis ability (%) [1]: 188.3%

Reference: patent US20150352134A1, “COMPOSITION FOR TOPICAL SKIN APPLICATION CONTAINING GINSENOSIDE F2 DERIVED FROM HYDROPONIC GINSENG” (AMOREPACIFIC CORPORATION, priority 2012, published 2015)
